“And” between values parts separate entries of the source, which are not always exact repeats. Equal values may be shown once.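 Where inhibition never reached the appropriate level, the endpoint shown equals the highest concentration tested. Otherwise, values were interpolated linearly from a five-concentration, 48-hour dose response in 96-well plates. Here, GI50 denotes the concentration required for 50% inhibition of growth. At the TGI there is no net growth.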 Where a SMILES comes first, the peptide text is derived from it. [ ]: non-standard residue; d: D form. NMeY = CN[C@@H](Cc1ccc(O)cc1)C(=O)O; dNMeF = CN[C@H](Cc1ccccc1)C(=O)O; Sar = CNCC(=O)O
System: MDA-MB-468 breast
Experiment: inhibition of tumour cell growth, NCI panel, 48 h

SMILES | GI50 [µM] | TGI
CO[C@H]1C[C@@H]2CC[C@@H](C)[C@@](O)(O2)C(=O)C(=O)N2CCCC[C@H]2C(=O)O[C@H]([C@H](C)C[C@@H]2CC[C@@H](OP(C)(C)=O)[C@H](OC)C2)CC(=O)[C@H](C)/C=C(\C)[C@@H](O)[C@@H](OC)C(=O)[C@H](C)C[C@H](C)/C=C/C=C/C=C/1C | < 0.01 | 17.1 µM
CCCCCCCCCCCC[n+]1ccccc1 | 0.252 | 2.02 µM
CCOC(=O)Cn1c(C)c(/C=N/NC(=O)c2cc3c(ccc4ccccc43)o2)c2ccccc21 | 0.326 | 1.34 µM
Nc1ccn(C2CC(O)C(CO)O2)c(=O)n1 (configuration not stated) | > 5000 | > 5000 µM
COc1ccc2[nH]c(=O)c(/C=C/C(=O)/C=C/c3ccc(O)c(OC)c3)cc2c1 | 1.37 | 4.58 µM
CC[C@H](C)[C@@H]1NC(=O)[C@H](Cc2ccc(O)cc2)N(C)C(=O)[C@H](Cc2ccccc2)NC(=O)CN(C)C(=O)[C@@H]2CCCN2C(=O)[C@@H](Cc2ccccc2)N(C)C(=O)[C@H](CC(C)C)NC1=O (cyclo(F[NMeY]IL[dNMeF]P[Sar])) | 0.367 | 2.82 µM
Cc1ccc2c(Nc3cccc(Cl)c3F)ncc(NC(=O)c3csc4c(N)ncnc34)c2c1 | > 100 | > 100 µM
CC[C@H](C)[C@H](NC(=O)Nc1ccccc1)C(=O)N(C)[C@H](C[C@@H](OC(C)=O)c1nc(C(=O)N[C@@H](Cc2ccccc2)C[C@H](C)C(=O)OC)cs1)C(C)C | 0.514 | 7.22 µM
CNC(=O)c1cc(-n2ccc3cc(NC(=O)Nc4ccc(N5CCN(C)CC5)c(C(F)(F)F)c4)ccc32)ccn1 | 3.48 | 7.57 µM
Cc1ccc(-c2cc3nc(C(Cl)Cl)nc(-c4cccnc4)n3n2)cc1 | 0.407 | 2.13 µM
ICCC(c1ccccc1)(c1ccccc1)c1ccccc1 | 3.17 | 13.3 µM
c1ccc(-c2nnc(Nc3ccc4c(c3)OCCO4)o2)c(NCc2ccncc2)c1 | 0.0953 | 0.528 µM
CCOC(=O)c1ccc(Nc2sc(C(=O)c3cccc([N+](=O)[O-])c3)c(N)c2C#N)cc1 | 0.222 | 4.53 µM
Cc1ccc(N=Nc2c(N)nn(-c3ccccc3)c2N)cc1 | 0.613 | > 100 µM
CN1CCN(Cc2ccc(NC(=O)c3nc4ccc5[nH]ncc5c4c4c3CCC4)cc2C(F)(F)F)CC1 | 0.936 | 2.08 µM
Nc1c(C(=O)c2cccc(CCC3(O)CCCC3)c2)cnn1-c1ccc(F)cc1 | 5.97 | > 25 µM
CC1(C)N=C(N)N=C(N)N1c1cccc(CCCCc2ccccc2)c1 | 0.149 | 13.8 µM
C/C(=C(/c1ccc(O)cc1)c1ccc(OCCN2CCCCCC2)cc1)c1ccccc1 | 41.2 | > 100 µM
CC1(O)CC2(O)C=CC3=C(C(=O)c4cccc(O)c4C3=O)C2(O)C(=O)C1O (configuration not stated) | 0.735 | 2.09 µM
Nc1nc(N)c2c(ccc3nccc32)[nH]1 | 3.28 | 21.3 µM
CC1(C)CC(=O)c2c(ccc(C(=O)C[C@H](N)CO)c2N)O1 | – | 17.5 µM and 5.83 µM
N#CSCc1c(Cl)cccc1Cl | 3.82 | > 100 µM

SMILES | GI50 [µM] | TGI
CCN(C(=O)CCl)C(C)(C)C(SSSC(c1ccc(Cl)cc1)C(C)(C)N(CC)C(=O)CCl)c1ccc(Cl)cc1 (configuration not stated) | 1.97 | 5.39 µM
COc1ccc(-c2cc(-c3cn[nH]c3-c3ccccn3)ccn2)cc1 | > 25 | > 25 µM
C#C[C@@]1(O)[C@@H](CO)O[C@@H](n2ccc3c(N)ncnc32)[C@@H]1O | 1.3 | 3.33 µM
COc1ccc(/C=C/C(=O)c2ccc3cc(OC)c(OC)cc3c2)cc1OC | 2.68 | 10.2 µM
O=C(NC(=S)NNC(=S)NNc1ccccc1)c1ccccc1 | 8.92 | > 100 µM
Nc1c(C(=O)c2cccc(C#CCN3CCOCC3)c2)cnn1-c1ccc(F)cc1 | 9.82 | > 25 µM
C[C@H](Nc1ncnc2ccc(-c3cnc(Cl)c(NS(C)(=O)=O)c3)cc12)c1ccccc1 | 0.111 | 0.841 µM
Cc1cc2c3ccccc3ccc2[n+]2ccccc12 | 0.524 | 2.13 µM
CC1(C)CC(OCCCC[P+](c2ccccc2)(c2ccccc2)c2ccccc2)CC(C)(C)N1O | 0.331 | 2.87 µM
O=C1Nc2cc(Cl)ccc2/C1=C\c1ccc(OCc2ccc(Br)cc2F)cc1 | 2.13 | 5.21 µM
COc1ccc2c(c1)sc1nc(-c3ccccc3)c(-c3ccc(O)c(OC)c3)n12 | 24.4 | > 100 µM
CC(=O)OC1CCC2(C)C(CCC3C4CC=C(C(C)=O)C4(C)OC(=O)CC32)C1 (configuration not stated) | 1.64 | 3.74 µM
Cc1ncc(C(=O)Nc2ccc(CN3CCN(C)CC3)c(C(F)(F)F)c2)cc1C#Cc1cnc(N)c2ncccc12 | 1.1 | 2.58 µM
ClC1=NC(Cl)C(Cl)=N/C1=N\c1ncn[nH]1 (configuration not stated) | 1.6 | 3.39 µM
C/C(=N\NC(=O)c1ccccc1O)c1cccc(/C(C)=N/NC(=O)c2ccccc2O)n1 | 0.317 | > 100 µM
C=CC(=O)N1CCC([C@@H]2CCNc3c(C(N)=O)c(-c4ccc(Oc5ccccc5)cc4)nn32)CC1 | 0.057 | 0.711 µM
N#Cc1cccc(/C=C(/C(=O)c2ccccc2)c2ccccc2)c1 | 2.3 | 7.63 µM
COc1cccc(-n2ncc3c(N/N=C/c4ccc(S(C)(=O)=O)cc4)ncnc32)c1 | 3.66 | 16.5 µM
COc1cc(Cn2ccc3c2-c2oncc2CC3)cc(OC)c1 | 0.84 | 7 µM
O=C1c2ccccc2-c2n[nH]c3cccc1c23 | 17.3 | > 100 µM
O=c1oc2ccc(Cl)cc2c(=O)n1-c1cc(C(F)(F)F)cc(C(F)(F)F)c1 | 0.236 | 0.754 µM
CN(C)C(=O)c1cc2cnc(Nc3ccc(-c4csc5c(=O)cc(N6CCNCC6)oc45)cc3)nc2n1C1CCCC1 | 0.482 | 2.53 µM
